Laboratory results from US20070254894A1, “Novel small molecules with selective cytotoxicity against human microvascular endothelial cell proliferation” (priority 2006, published 2007).
Where a name gives a salt, the structure may show the parent alone. Read-outs that look alike come from different tables or passages of the source.

Legend:
[1] = system: HMVEC cells stimulated with VEGF 165; experiment: VEGF driven HMVEC proliferation screen; type: cell-based
Method: (§1) HMVEC cells were plated on collagen-coated plates at 2500 cells/well for 24 hours. Various concentrations of test compounds were then added to duplicate plates. […] Anti-FGF antibody (final concentration of 5 μg/mL) was added to four control wells as a standard inhibitor. At the same time the compounds were added, a T-zero plate was generated (Alamar blue was added to a plate and read after three hours). The plates with the compounds were incubated for one hour at 37° C., 5% carbon dioxide. At this point, b-FGF was added (final concentration of 2.5 ng/mL). Tween-20 (10 μL) was added to four additional control wells to represent total death and the plates were returned to the carbon dioxide incubator for 6 days.
The assay was run identically using VEGF in place of b-FGF. The final concentration of VEGF 165, in this mode, was 10 ng/mL. The control inhibitor was anti-VEGF antibody (final concentration of […]). All other conditions were the same.

[2] = system: HMVEC cells stimulated with b-FGF; experiment: b-FGF driven HMVEC proliferation screen; type: cell-based
Method: as §1

[3] = system: Primary Human Dermal Fibroblasts; experiment: in vitro; settings: read-out: D. Fibroblast LC50; 6 days, Alamar blue
Method: (§2) In parallel with the VEGF and FGF screens, a normal cell toxicity assay was run. Primary Human Dermal Fibroblasts (Clonetics) were plated at 5000 cells/well. After 24 hours various concentrations of test compounds, were added in duplicate plates and 10% Tween-20 was added to four control wells to represent total death. At the same time a T-zero plate was generated. The plates were returned to the carbon dioxide incubator and on day 6 Alamar blue was added and the plates read after 3 hours.
(§3) Using a T-zero plate allows the observation of compounds that cause the cells to become static as well as inhibit growth.

[4] = system: retinal neovascularization; experiment: Mouse model of oxygen induced retinopathy (OIR), intravitreal administration; type: in vivo, C57BL/6 mouse; settings: for amount of neovascularization: intravitreal once on day 12, 30 mg/ml, eyes examined day 17, versus controls; for pupils of treated animals: for the duration of the study
Method: Seven day old neonatal C57BL/6 mouse pups and their nursing dam were placed in an isobaric chamber that maintains a 75% oxygen level. The pups were returned to a normoxic environment at 12 days of age. The test articles and vehicle controls were administered intravitreally (once on day 12). Approximately one half of the pups from each litter were injected, the remaining pups were used as controls. Pups were euthanized on day 17 and their left/treated eye is processed for histological sectioning. […] The degree of neovascularization was measured by examining serial sections of the eye taken at 100 micron intervals. The numbers of endothelial nuclei that were internal but contiguous to the inner limiting membrane were counted. The number of nuclei from test article treated animals was compared with those counted in control animals. [table]

[5] = in vitro; settings: human, primary human dermal fibroblasts, D. Fibroblast LC50, 6 days, Alamar blue
Method: as §2, §3

[6] = Homo sapiens, HMVEC, 144 h, VEGF 165 10 ng/mL, 6 days, Alamar blue, read-out: VEGF LC50
[7] = Homo sapiens, HMVEC, 144 h, b-FGF 2.5 ng/mL, 6 days, Alamar blue, read-out: b-FGF LC50
[8] = VEGF 165 10 ng/mL, 6 days, Alamar blue, read-out: VEGF LC50
[9] = b-FGF 2.5 ng/mL, 6 days, Alamar blue, read-out: b-FGF LC50

| SMILES | CC50 [1, 6] [nM] | CC50 [2, 7] [nM] | CC50 at 6 days [5] [nM] | other results |
| --- | --- | --- | --- | --- |
| O=C(Nc1ccc(N2CCOCC2)c2cccnc12)c1ccccn1 [Compound 9] | – | – | – | CC50 [1]: 35 nM; CC50 [2]: 37 nM; CC50 [3]: > 10000 nM; amount of neovascularization [4]: a decrease in the amount of neovascularization; effect on neovascularization, Compound 9 compared with Compound 98 ([4]; intravitreal, 30 mg/ml, FIG. 1 and FIG. 2): A greater effect; pupils of treated animals ([4]; intravitreal): markedly dilated |
| CC(C)N1CCC[C@H]1C(=O)Nc1cccc2cccnc12 [Compound 64] | 6400 | 5200 | > 10000 | – |
| CN1CCC[C@@H]1C(=O)Nc1cccc2cccnc12 [Compound 65] | 230 | 290 | > 10000 | – |
| COc1cc(NC(=O)[C@@H]2CCCN2C)c2ncccc2c1 [Compound 66] | 240 | 240 | > 10000 | – |
| Cc1cc(NC(=O)[C@@H]2CCCN2C)c2ncccc2c1 [Compound 67] | 230 | 350 | > 10000 | – |
| CN1CCC[C@H]1C(=O)Nc1ccc(N2CCOCC2)c2cccnc12 [Compound 68] | 430 | 820 | > 10000 | – |
| CN1CCCC[C@H]1C(=O)Nc1cccc2cccnc12 [Compound 69] | 3100 | 2600 | > 10000 | – |
| CN1CCCC[C@@H]1C(=O)Nc1cccc2cccnc12 [Compound 70] | 3900 | 2800 | > 10000 | – |
| Cc1cc(NS(=O)(=O)c2ccccn2)c2ncccc2c1C [Compound 75, pyridine-2-sulfonic acid (5,6-dimethyl-quinolin-8-yl)-amide] | 190 | 160 | > 10000 | – |
| O=C(Nc1cccc2ccnnc12)c1ccccn1 [Compound 76] | 3500 | 3300 | > 10000 | – |
| O=S(=O)(Nc1cccc2nccnc12)c1ccccn1 [Compound 78] | 2400 | 4200 | > 10000 | – |
| O=C(Nc1cccc2cccnc12)c1ccccn1 [Compound 93, pyridine-2-carboxylic acid quinolin-8-ylamide hydrochloride salt] | 72 | 71 | > 10000 | – |
| O=C(Nc1cccc2nccnc12)c1ccccn1 [Compound 94] | 280 | 290 | > 10000 | – |
| Cc1cc(NC(=O)c2ccccn2)c2ncccc2c1C [Compound 95] | 150 | 170 | > 10000 | – |
| Cc1ccc(NC(=O)c2ccccn2)c2ncccc12 [Compound 96] | 140 | 100 | > 10000 | – |
| O=C(Nc1cc(Cl)c(Cl)c2cccnc12)c1ccccn1 [Compound 97] | 250 | 250 | > 10000 | – |
| CN1CCN(c2ccc(NC(=O)c3ccccn3)c3ncccc23)CC1 [Compound 98] | 33 | 36 | > 10000 | amount of neovascularization [4]: a decrease in the amount of neovascularization; pupils of treated animals ([4]; intravitreal): markedly dilated |
| CN1CCCN(c2ccnc(C(=O)Nc3cccc4cccnc34)c2)CC1 [Compound 102] | 24 | 31 | > 10000 | – |
| O=C(Nc1cccc2cccnc12)c1cc(N2CCC(N3CCCC3)CC2)ccn1 [Compound 103] | 33 | 38 | 4300 | – |
| COc1cc(NC(=O)c2cc(N3CCN(C)CC3)ccn2)c2ncccc2c1 [Compound 105] | – | – | 9600 | CC50 [1, 8]: 91 nM; CC50 [2, 9]: 120 nM |
| CCN(C)c1ccccc1NC(=O)c1ccccn1 [Compound 106] | 1500 | 1200 | > 10000 | – |
| CN1CCC[C@H]1C(=O)Nc1cccc2cccnc12 [Compound 107] | – | – | > 10000 | CC50 [1, 8]: 460 nM; CC50 [2, 9]: 410 nM |
| O=S(=O)(Nc1cc(Cl)c(Cl)c2cccnc12)c1ccccn1 [Compound 109] | 450 | 340 | > 10000 | – |
| CN1CCN(c2ccc(NS(=O)(=O)c3ccccn3)c3ncccc23)CC1 [Compound 110] | 1500 | 1300 | > 10000 | – |
